Results: PubChem BioAssay (NCI)
Where “and” joins values, the source holds several entries; their conditions need not be identical. Equal entries are not always repeated.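 Five concentrations, 48 hours, 96-well plates. GI50: concentration for 50% inhibition of growth. Definition used: TGI = concentration required for complete inhibition of growth.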

test system: U251 CNS; assay: NCI tumour cell line growth inhibition, 48 h

Row | SMILES | TGI | GI50
1 | CN(C)c1ccc(/C=N/NC(=S)Nc2ccccc2)cc1 | > 100 µM | –
2 | COc1ccc2ncnc(Nc3ccc(OCc4ccccc4)cc3)c2c1 | > 25 µM | 8.54 µM
3 | O=C1c2c(F)c(F)c(F)c(F)c2C(=O)N1c1ccc(F)cc1F | 7.95 µM | 2.55 µM
4 | O=C1C(C(Nc2ccccc2)c2ccccc2)=C([O-])c2ccccc21.O=C1C(C(Nc2ccccc2)c2ccccc2)=C([O-])c2ccccc21.[Cu+2] (stereo unspecified) | 65.4 µM | 22.5 µM
5 | OC(c1cc(C(F)(F)F)nc2c(C(F)(F)F)cccc12)C1CCCCN1 (stereo unspecified) | 4.25 µM | 1.79 µM
6 | C/C=C/[C@@H]1O[C@@H]2COC(=O)C2=C[C@@H]1O | 38.3 µM | 18.9 µM
7 | COC(=O)/C=C/c1cc(OC(C)=O)c2c(c1)[C@@H](C(=O)OC)[C@H](c1ccc(OC(C)=O)c(OC(C)=O)c1)O2 | 41 µM | 0.114 µM
8 | Nc1nc2[nH]cc(CCc3ccc(C(=O)N[C@@H](CCC(=O)O)C(=O)O)cc3)c2c(=O)[nH]1 | > 100 µM | 14.6 µM
9 | CCC(C)SC1SCC2C(=O)N(C)C3(CC3C)C(=O)OCC(NC(=O)c3nc4ccccc4cc3O)C(=O)NC(C)C(=O)N(C)C1C(=O)N(C)C1(CC1C)C(=O)OCC(NC(=O)c1nc3ccccc3cc1O)C(=O)NC(C)C(=O)N2C (stereo unspecified) | 0.0172 µM | –
10 | CN1CCN(C(=O)COc2ccc(C34CC5CC(CC(C5)C3)C4)cc2)CC1 | 25 µM | 10.8 µM
11 | Cc1[cH-]c(=O)n(-c2ccccc2)n1.[Au+].[Au].c1ccc([PH+](c2ccccc2)c2ccccc2)cc1.c1ccc([PH+](c2ccccc2)c2ccccc2)cc1 | 27.3 µM | 4.97 µM and 13.1 µM
12 | COc1ccccc1NC(=O)c1cc2cc(Br)ccc2cc1O | 9.58 µM | 2.65 µM
13 | CC(=O)OCc1ccc2c(c1)C(O)NC(=O)O2 (stereo unspecified) | > 100 µM | –
14 | CC1(C)CC(c2c[nH]c3ccccc23)=CC2=Nc3ccccc3C21O (stereo unspecified) | > 100 µM | –
15 | O=C(Nc1nn2c(-c3cc(C(F)(F)F)cc(C(F)(F)F)c3)nnc2s1)C1CCCC1 | > 100 µM | 0.854 µM
16 | COC(=O)[C@]12CC[C@@H](C)[C@H](C)[C@@H]1C1=CC[C@@H]3[C@@]4(C)C[C@@H](O)[C@H](O)[C@@](C)(CO)[C@@H]4[C@H](O)C[C@@]3(C)[C@]1(C)CC2 | 40.9 µM | 17.2 µM
17 | COc1ccc(CN2C(=O)C(Cl)=C(Nc3cccc(C(F)(F)F)c3)C2=O)cc1 | 17 µM | 2.75 µM
18 | COCCn1cc(-c2nc(-c3cc4cccnc4[nH]3)cs2)c2cc(OC)ccc21 | > 59.3 µM | 3.6 µM
19 | O=[N+]([O-])c1cc([N+](=O)[O-])c(C(F)(F)F)cc1NN=C(c1ccc(O)cc1)c1ccc(O)cc1 | 11.7 µM | 2.92 µM
20 | c1ccc(Nc2ncc(-c3ccccc3)o2)cc1 | > 25 µM | > 25 µM
21 | COc1c2ccccc2c(OC)c2[nH]c(=O)ccc12 | > 69 µM | 4 µM
22 | O=C(O)C(Cl)Cl | > 10000 µM | 7690 µM and > 10000 µM
23 | NC(=S)N/N=C\c1nccc2c(C(F)(F)F)cccc12 | 8.4 µM | 0.224 µM
24 | CC(=O)N[C@@H](Cc1ccc(OP(=O)(O)O)cc1)C(=O)N[C@H]1CCC(=O)N2CCC[C@@H](C(=O)Nc3cccc4ccccc34)N2C1=O | > 25 µM | > 25 µM
25 | O=C(/C=C/c1c(O)ccc2ccccc12)c1ccc([N+](=O)[O-])cc1 | > 100 µM | –

test system: MOLT-4 leukemia; assay: NCI tumour cell line growth inhibition, 48 h

Row | SMILES | TGI | GI50
26 | CN(C)c1ccc(/C=N/NC(=S)Nc2ccccc2)cc1 | > 100 µM | –
27 | COc1ccc2ncnc(Nc3ccc(OCc4ccccc4)cc3)c2c1 | > 23.5 µM | 7.56 µM
28 | O=C1c2c(F)c(F)c(F)c(F)c2C(=O)N1c1ccc(F)cc1F | 3.73 µM | 0.864 µM
29 | O=C1C(C(Nc2ccccc2)c2ccccc2)=C([O-])c2ccccc21.O=C1C(C(Nc2ccccc2)c2ccccc2)=C([O-])c2ccccc21.[Cu+2] (stereo unspecified) | > 100 µM | 25.5 µM
30 | OC(c1cc(C(F)(F)F)nc2c(C(F)(F)F)cccc12)C1CCCCN1 (stereo unspecified) | 6.53 µM | 2.77 µM
31 | C/C=C/[C@@H]1O[C@@H]2COC(=O)C2=C[C@@H]1O | – | 2.2 µM
32 | COC(=O)/C=C/c1cc(OC(C)=O)c2c(c1)[C@@H](C(=O)OC)[C@H](c1ccc(OC(C)=O)c(OC(C)=O)c1)O2 | > 55 µM | 0.09 µM
33 | Nc1nc2[nH]cc(CCc3ccc(C(=O)N[C@@H](CCC(=O)O)C(=O)O)cc3)c2c(=O)[nH]1 | > 100 µM | 0.53 µM
34 | CCC(C)SC1SCC2C(=O)N(C)C3(CC3C)C(=O)OCC(NC(=O)c3nc4ccccc4cc3O)C(=O)NC(C)C(=O)N(C)C1C(=O)N(C)C1(CC1C)C(=O)OCC(NC(=O)c1nc3ccccc3cc1O)C(=O)NC(C)C(=O)N2C (stereo unspecified) | 0.0687 µM | –
35 | CN1CCN(C(=O)COc2ccc(C34CC5CC(CC(C5)C3)C4)cc2)CC1 | 94.9 µM | 13.2 µM
36 | Cc1[cH-]c(=O)n(-c2ccccc2)n1.[Au+].[Au].c1ccc([PH+](c2ccccc2)c2ccccc2)cc1.c1ccc([PH+](c2ccccc2)c2ccccc2)cc1 | > 100 µM | 36.6 µM
37 | COc1ccccc1NC(=O)c1cc2cc(Br)ccc2cc1O | 17.3 µM | 2.7 µM
38 | CC(=O)OCc1ccc2c(c1)C(O)NC(=O)O2 (stereo unspecified) | > 100 µM | –
39 | CC1(C)CC(c2c[nH]c3ccccc23)=CC2=Nc3ccccc3C21O (stereo unspecified) | > 100 µM | –
40 | O=C(Nc1nn2c(-c3cc(C(F)(F)F)cc(C(F)(F)F)c3)nnc2s1)C1CCCC1 | 4.53 µM | 0.643 µM
41 | COC(=O)[C@]12CC[C@@H](C)[C@H](C)[C@@H]1C1=CC[C@@H]3[C@@]4(C)C[C@@H](O)[C@H](O)[C@@](C)(CO)[C@@H]4[C@H](O)C[C@@]3(C)[C@]1(C)CC2 | 25.6 µM | 4.58 µM
42 | COc1ccc(CN2C(=O)C(Cl)=C(Nc3cccc(C(F)(F)F)c3)C2=O)cc1 | 9.29 µM | 2.39 µM
43 | COCCn1cc(-c2nc(-c3cc4cccnc4[nH]3)cs2)c2cc(OC)ccc21 | > 46.7 µM | 4.24 µM
44 | O=[N+]([O-])c1cc([N+](=O)[O-])c(C(F)(F)F)cc1NN=C(c1ccc(O)cc1)c1ccc(O)cc1 | 5.77 µM | 1.8 µM
45 | c1ccc(Nc2ncc(-c3ccccc3)o2)cc1 | > 25 µM | > 25 µM
46 | COc1c2ccccc2c(OC)c2[nH]c(=O)ccc12 | > 100 µM | > 21.5 µM
47 | O=C(O)C(Cl)Cl | > 10000 µM | 8180 µM and > 8700 µM
48 | NC(=S)N/N=C\c1nccc2c(C(F)(F)F)cccc12 | 15.6 µM | 0.355 µM
49 | CC(=O)N[C@@H](Cc1ccc(OP(=O)(O)O)cc1)C(=O)N[C@H]1CCC(=O)N2CCC[C@@H](C(=O)Nc3cccc4ccccc34)N2C1=O | > 25 µM | > 25 µM
50 | O=C(/C=C/c1c(O)ccc2ccccc12)c1ccc([N+](=O)[O-])cc1 | > 90.4 µM | –

test system: 786-0 renal; assay: NCI tumour cell line growth inhibition, 48 h

Row | SMILES | TGI | GI50
51 | CN(C)c1ccc(/C=N/NC(=S)Nc2ccccc2)cc1 | > 100 µM | –
52 | COc1ccc2ncnc(Nc3ccc(OCc4ccccc4)cc3)c2c1 | 10.9 µM | 4.76 µM
53 | O=C1c2c(F)c(F)c(F)c(F)c2C(=O)N1c1ccc(F)cc1F | > 43.8 µM | 11 µM
54 | O=C1C(C(Nc2ccccc2)c2ccccc2)=C([O-])c2ccccc21.O=C1C(C(Nc2ccccc2)c2ccccc2)=C([O-])c2ccccc21.[Cu+2] (stereo unspecified) | > 100 µM | 48.3 µM
55 | OC(c1cc(C(F)(F)F)nc2c(C(F)(F)F)cccc12)C1CCCCN1 (stereo unspecified) | 3.77 µM | 1.88 µM
56 | C/C=C/[C@@H]1O[C@@H]2COC(=O)C2=C[C@@H]1O | 21.1 µM | 6.79 µM
57 | COC(=O)/C=C/c1cc(OC(C)=O)c2c(c1)[C@@H](C(=O)OC)[C@H](c1ccc(OC(C)=O)c(OC(C)=O)c1)O2 | > 100 µM | 0.0958 µM
58 | Nc1nc2[nH]cc(CCc3ccc(C(=O)N[C@@H](CCC(=O)O)C(=O)O)cc3)c2c(=O)[nH]1 | > 100 µM | 0.0611 µM
59 | CCC(C)SC1SCC2C(=O)N(C)C3(CC3C)C(=O)OCC(NC(=O)c3nc4ccccc4cc3O)C(=O)NC(C)C(=O)N(C)C1C(=O)N(C)C1(CC1C)C(=O)OCC(NC(=O)c1nc3ccccc3cc1O)C(=O)NC(C)C(=O)N2C (stereo unspecified) | 1.3 µM | –
60 | CN1CCN(C(=O)COc2ccc(C34CC5CC(CC(C5)C3)C4)cc2)CC1 | 23.5 µM | 11.3 µM
61 | Cc1[cH-]c(=O)n(-c2ccccc2)n1.[Au+].[Au].c1ccc([PH+](c2ccccc2)c2ccccc2)cc1.c1ccc([PH+](c2ccccc2)c2ccccc2)cc1 | 5.53 µM and 16.6 µM | 1.6 µM and 4.03 µM
62 | COc1ccccc1NC(=O)c1cc2cc(Br)ccc2cc1O | 11.2 µM | 3.52 µM
